# Assay results from patent EP2084544B1, “STABLE STANDARDS FOR BNP IMMUNOASSAYS” (Hytest Ltd., priority 2006, dated 2011).
# Assay: Stability of BNP immunoreactivity of antigens incubated in pooled human citrate plasma, measured by sandwich immunofluorometric assay (MAbs 50E1 / 24C5-Eu)
# Format: in vitro ADME
# From the text: Antigens used in the studies. The antigens used in the stability studies included synthetic BNP-32 (Bachem, Bubendorf, Switzerland, cat. no. H-9060.0500), synthetic BNP-32 (Peptide Institute, Osaka, Japan, cat. no. 4212-v), recombinant proBNP (expressed in E. coli, non-glycosylated, from Hytest Ltd., Turku, Finland, 8PRO8), recombinant proBNP (expressed in eukaryotic CHO (Chinese hamster) cells and, thus, glycosylated, as described herein), and recombinant proBNP (expressed in eukaryotic HEK (human) cells and, thus, glycosylated, as described herein).
# Antigen solutions. An antigen matrix was prepared by pooling human citrate plasmas collected from healthy donors. Plasma was obtained from 15 healthy volunteers by vein puncture and mixed with 0.11 M sodium citrate tribasic in a ratio of 4:1. The crude serum:citrate was centrifuged for 30 minutes at 2000 rpm. Plasma was decanted, pooled and stored at -70°C until use. Antigen concentrations used in the studies were 6 ng/ml for recombinant proBNP expressed in CHO cells, 20 ng/ml for synthetic BNPs, 20 ng/ml for recombinant proBNP expressed in E. coli and 20 ng/ml for recombinant proBNP expressed in HEK cells. 0.1 % sodium azide was added to plasma as a preservative to prevent bacterial growth.
# Incubation at 4°C and 25°C. Antigen solutions in human plasma were incubated for different time periods (up to 96 hours) at 4°C and 25°C. Aliquots were frozen and stored at -70°C until BNP immunoreactivity was measured.
# Assays for BNP immunoreactivity. BNP immunoreactivity in the samples was determined by sandwich immunofluorometric assay utilizing two BNP-specific monoclonal antibodies (MAbs). […]
# MAb 24C5 specifically recognized and bound to peptide 11-22 of the BNP sequence and was conjugated to stable Eu^3+ chelate using conventional techniques. […] Consequently, it can be used for the quantification of whole BNP immunoreactivity, comprising both BNP and proBNP.
structure (smiles),measurement,setting,value
CC[C@H](C)[C@@H]1NC(=O)[C@H](CCCNC(=N)N)NC(=O)[C@H](CC(=O)O)NC(=O)[C@H](CCSC)NC(=O)[C@H](CCCCN)NC(=O)[C@H](CCCNC(=N)N)NC(=O)CNC(=O)[C@H](Cc2ccccc2)NC(=O)[C@@H](NC(=O)CNC(=O)[C@H](CO)NC(=O)CNC(=O)[C@H](CCC(N)=O)NC(=O)[C@@H](NC(=O)[C@H](CCSC)NC(=O)[C@H](CCCCN)NC(=O)[C@@H]2CCCN2C(=O)[C@@H](N)CO)C(C)C)CSSC[C@@H](C(=O)N[C@@H](CCCCN)C(=O)N[C@H](C(=O)N[C@@H](CC(C)C)C(=O)N[C@@H](CCCN=C(N)N)C(=O)N[C@@H](CCCN=C(N)N)C(=O)N[C@@H](Cc2cnc[nH]2)C(=O)O)C(C)C)NC(=O)CNC(=O)[C@H](CC(C)C)NC(=O)CNC(=O)[C@H](CO)NC(=O)[C@H](CO)NC(=O)[C@H](CO)NC(=O)[C@H](CO)NC1=O [Synthetic BNP-32],immunoreactivity detected after incubation (in words),96 hours of incubation at 4°C,Almost no immunoreactivity
same,immunoreactivity detected after incubation (in words),96 hours of incubation at 25°C,Almost no immunoreactivity
same,stability among the tested protein forms displaying BNP immunoreactivity (rank in words),incubation up to 96 hours at 4°C and 25°C,worst stability
